According to ChEMBL document CHEMBL5316337, “Critical Role of Position 10 Residue in the Polymyxin Antimicrobial Activity” (J Med Chem, 2023):
In brackets after ≈: the same amount, converted by molar mass.

Tests used:
Assay type in all cases: functional
Acinetobacter baumannii [1] = experiment: Antibacterial activity against polymyxin-susceptible Acinetobacter baumannii ATCC 17978 clinical isolates assessed as reduction in bacterial growth by broth microdilution method
Pseudomonas aeruginosa [2] = experiment: Antibacterial activity against Carbapenem-resistant Pseudomonas aeruginosa FADD1-PA001 clinical isolates assessed as reduction in bacterial growth by broth microdilution method
Klebsiella pneumoniae [3] = experiment: Antibacterial activity against Carbapenem-resistant Klebsiella pneumoniae FADD1-KP065 clinical isolates assessed as reduction in bacterial growth by broth microdilution method
Klebsiella pneumoniae [4] = experiment: Antibacterial activity against polymyxin-susceptible Klebsiella pneumoniae ATCC 700721 clinical isolates assessed as reduction in bacterial growth by broth microdilution method
Enterobacter cloacae [5] = experiment: Antibacterial activity against polymyxin-susceptible Enterobacter cloacae FADD1-EC001 clinical isolates assessed as reduction in bacterial growth by broth microdilution method
Pseudomonas aeruginosa [6] = experiment: Antibacterial activity against polymyxin-susceptible Pseudomonas aeruginosa ATCC 27853 clinical isolates assessed as reduction in bacterial growth by broth microdilution method
Enterobacter cloacae [7] = experiment: Antibacterial activity against polymyxin-susceptible Enterobacter cloacae FADD1-EC003 clinical isolates assessed as reduction in bacterial growth by broth microdilution method
Pseudomonas aeruginosa [8] = experiment: Antibacterial activity against polymyxin-susceptible Pseudomonas aeruginosa FADD1-PA025 clinical isolates assessed as reduction in bacterial growth by broth microdilution method
Pseudomonas aeruginosa [9] = experiment: Antibacterial activity against Carbapenem-resistant Pseudomonas aeruginosa FADD1-PA022 clinical isolates assessed as reduction in bacterial growth by broth microdilution method
Klebsiella pneumoniae [10] = experiment: Antibacterial activity against Carbapenem-resistant Klebsiella pneumoniae BM1 clinical isolates assessed as reduction in bacterial growth by broth microdilution method
Pseudomonas aeruginosa [11] = experiment: Antibacterial activity against polymyxin-susceptible Pseudomonas aeruginosa FADD1-PA038 clinical isolates assessed as reduction in bacterial growth by broth microdilution method
Klebsiella pneumoniae [12] = experiment: Antibacterial activity against Carbapenem-resistant Klebsiella pneumoniae FADD1-KP032 clinical isolates assessed as reduction in bacterial growth by broth microdilution method
Acinetobacter baumannii [13] = experiment: Antibacterial activity against Carbapenem-resistant Acinetobacter baumannii FADD1-AB034 clinical isolates assessed as reduction in bacterial growth by broth microdilution method
Acinetobacter baumannii [14] = experiment: Antibacterial activity against Carbapenem-resistant Acinetobacter baumannii FADD1-AB030 clinical isolates assessed as reduction in bacterial growth by broth microdilution method
Enterobacter cloacae [15] = experiment: Antibacterial activity against polymyxin-susceptible Enterobacter cloacae FADD1-EC006 clinical isolates assessed as reduction in bacterial growth by broth microdilution method
Acinetobacter baumannii [16] = experiment: Antibacterial activity against polymyxin-susceptible Acinetobacter baumannii ATCC 19606 clinical isolates assessed as reduction in bacterial growth by broth microdilution method
Klebsiella pneumoniae [17] = experiment: Antibacterial activity against Carbapenem-resistant Klebsiella pneumoniae FADD1-KP022 clinical isolates assessed as reduction in bacterial growth by broth microdilution method

Row | Structure (SMILES) | MIC (Acinetobacter baumannii [1]) [mg/L] | MIC (Pseudomonas aeruginosa [2]) [mg/L] | MIC (Klebsiella pneumoniae [3]) [mg/L] | MIC (Klebsiella pneumoniae [4]) [mg/L] | MIC (Enterobacter cloacae [5]) [mg/L] | MIC (Pseudomonas aeruginosa [6]) [mg/L] | MIC (Enterobacter cloacae [7]) [mg/L] | MIC (Pseudomonas aeruginosa [8]) [mg/L] | MIC (Pseudomonas aeruginosa [9]) [mg/L] | MIC (Klebsiella pneumoniae [10]) [mg/L] | MIC (Pseudomonas aeruginosa [11]) [mg/L] | MIC (Klebsiella pneumoniae [12]) [mg/L] | MIC (Acinetobacter baumannii [13]) [mg/L] | MIC (Acinetobacter baumannii [14]) [mg/L] | MIC (Enterobacter cloacae [15]) [mg/L] | MIC (Acinetobacter baumannii [16]) [mg/L] | MIC (Klebsiella pneumoniae [17]) [mg/L]
1 | CC[C@H](C)CCCCC(=O)N[C@@H](CCN)C(=O)N[C@H](C(=O)N[C@@H](CCN)C(=O)N[C@H]1CCNC(=O)[C@H](CS)NC(=O)[C@H](CCN)NC(=O)[C@H](CCN)NC(=O)[C@H](CC(C)C)NC(=O)[C@@H](Cc2ccccc2)NC(=O)[C@H](CCN)NC1=O)[C@@H](C)O | 16 (≈ 13.3 µM) | 8 (≈ 6.64 µM) | 4 (≈ 3.32 µM) | 16 (≈ 13.3 µM) | 16 (≈ 13.3 µM) | 4 (≈ 3.32 µM) | 16 (≈ 13.3 µM) | 8 (≈ 6.64 µM) | 4 (≈ 3.32 µM) | 16 (≈ 13.3 µM) | 8 (≈ 6.64 µM) | 16 (≈ 13.3 µM) | 16 (≈ 13.3 µM) | 32 (≈ 26.5 µM) | 16 (≈ 13.3 µM) | 16 (≈ 13.3 µM) | 4 (≈ 3.32 µM)
2 | CC[C@H](C)CCCCC(=O)N[C@@H](CCN)C(=O)N[C@H](C(=O)N[C@@H](CCN)C(=O)N[C@H]1CCNC(=O)[C@H]([C@@H](C)OC)NC(=O)[C@H](CCN)NC(=O)[C@H](CCN)NC(=O)[C@H](CC(C)C)NC(=O)[C@@H](Cc2ccccc2)NC(=O)[C@H](CCN)NC1=O)[C@@H](C)O | 8 (≈ 6.57 µM) | 8 (≈ 6.57 µM) | 8 (≈ 6.57 µM) | 8 (≈ 6.57 µM) | 8 (≈ 6.57 µM) | 1 (≈ 0.821 µM) | 4 (≈ 3.29 µM) | 2 (≈ 1.64 µM) | 1 (≈ 0.821 µM) | 8 (≈ 6.57 µM) | 16 (≈ 13.1 µM) | 2 (≈ 1.64 µM) | 4 (≈ 3.29 µM) | 8 (≈ 6.57 µM) | 32 (≈ 26.3 µM) | 16 (≈ 13.1 µM) | 1 (≈ 0.821 µM)
3 | CC[C@H](C)CCCCC(=O)N[C@@H](CCN)C(=O)N[C@H](C(=O)N[C@@H](CCN)C(=O)N[C@H]1CCNC(=O)[C@H](CCO)NC(=O)[C@H](CCN)NC(=O)[C@H](CCN)NC(=O)[C@H](CC(C)C)NC(=O)[C@@H](Cc2ccccc2)NC(=O)[C@H](CCN)NC1=O)[C@@H](C)O | 2 (≈ 1.66 µM) | 32 (≈ 26.6 µM) | 2 (≈ 1.66 µM) | 2 (≈ 1.66 µM) | 8 (≈ 6.65 µM) | 4 (≈ 3.32 µM) | 2 (≈ 1.66 µM) | 2 (≈ 1.66 µM) | 0.5 (≈ 0.415 µM) | 4 (≈ 3.32 µM) | 8 (≈ 6.65 µM) | 2 (≈ 1.66 µM) | 4 (≈ 3.32 µM) | 32 (≈ 26.6 µM) | > 32 | > 32 | 0.5 (≈ 0.415 µM)
4 | C/C=C1/NC(=O)[C@H](CCN)NC(=O)[C@H](CCN)NC(=O)[C@H](CC(C)C)NC(=O)[C@@H](Cc2ccccc2)NC(=O)[C@H](CCN)NC(=O)[C@@H](NC(=O)[C@H](CCN)NC(=O)[C@@H](NC(=O)[C@H](CCN)NC(=O)CCCC[C@@H](C)CC)[C@@H](C)O)CCNC1=O | 1 (≈ 0.844 µM) | 4 (≈ 3.37 µM) | 4 (≈ 3.37 µM) | 16 (≈ 13.5 µM) | > 32 | 2 (≈ 1.69 µM) | > 32 | 2 (≈ 1.69 µM) | 1 (≈ 0.844 µM) | 8 (≈ 6.75 µM) | 16 (≈ 13.5 µM) | 8 (≈ 6.75 µM) | 2 (≈ 1.69 µM) | 2 (≈ 1.69 µM) | > 32 | 4 (≈ 3.37 µM) | 2 (≈ 1.69 µM)
5 | CC[C@H](C)CCCCC(=O)N[C@@H](CCN)C(=O)N[C@H](C(=O)N[C@@H](CCN)C(=O)N[C@H]1CCNC(=O)[C@H](C(C)(C)O)NC(=O)[C@H](CCN)NC(=O)[C@H](CCN)NC(=O)[C@H](CC(C)C)NC(=O)[C@@H](Cc2ccccc2)NC(=O)[C@H](CCN)NC1=O)[C@@H](C)O | 8 (≈ 6.57 µM) | 2 (≈ 1.64 µM) | 1 (≈ 0.821 µM) | 4 (≈ 3.29 µM) | 16 (≈ 13.1 µM) | 1 (≈ 0.821 µM) | 4 (≈ 3.29 µM) | 2 (≈ 1.64 µM) | 1 (≈ 0.821 µM) | 1 (≈ 0.821 µM) | 8 (≈ 6.57 µM) | 2 (≈ 1.64 µM) | 8 (≈ 6.57 µM) | 8 (≈ 6.57 µM) | 16 (≈ 13.1 µM) | 8 (≈ 6.57 µM) | 1 (≈ 0.821 µM)
6 | CC[C@H](C)CCCCC(=O)N[C@@H](CCN)C(=O)N[C@H](C(=O)N[C@@H](CCN)C(=O)N[C@H]1CCNC(=O)CNC(=O)[C@H](CCN)NC(=O)[C@H](CCN)NC(=O)[C@H](CC(C)C)NC(=O)[C@@H](Cc2ccccc2)NC(=O)[C@H](CCN)NC1=O)[C@@H](C)O | 4 (≈ 3.45 µM) | 1 (≈ 0.862 µM) | 0.5 (≈ 0.431 µM) | 8 (≈ 6.9 µM) | 4 (≈ 3.45 µM) | 0.5 (≈ 0.431 µM) | 4 (≈ 3.45 µM) | 2 (≈ 1.72 µM) | 0.5 (≈ 0.431 µM) | > 32 | 8 (≈ 6.9 µM) | 4 (≈ 3.45 µM) | 32 (≈ 27.6 µM) | > 32 | 4 (≈ 3.45 µM) | > 32 | 1 (≈ 0.862 µM)
